pEC50: −log10 of the molar value.
Columns and labels:
[1] = test system: basal cell carcinoma lesions (basaloid nests) in embryonic skin punches; assay: Embryonic skin punch assay (Shh-induced basaloid nests); format: cell-based, Ptch+/−-LacZ mice; conditions: Mus musculus, completely blocks the basanoid formation, read-out: EC50 to block basanoid formation
Description: Compounds of the invention are tested from their ability to treat non-melanoma skin cancer, i.e. basal cell carcinoma lesions using the skin punch assay. Mouse embryos from Ptch^+/−-LacZ mice, are collected and killed at late gestation (embryonic day 17.5) and their skins excised. Circular punches (4 mm in diameter are placed in a collagen-coated Transwell (BIOCOAT cell Culture Insert, Becton Dickinson Labware, Bedford, Mass.) and cultured at the air-liquid interface, with the epidermis side facing up. The culture medium contains 5% FBS in DMEM/F12 (3:1) with added epidermal growth factor, insulin, and hydrocortisone. To induce formation of basaloid nests, punches are grown in the presence of 1-2 μg/ml Shh for 4 or more days. Effects of compounds of the invention are tested by adding at the time of Shh addition or after 6 days of Shh pretreatment. Compounds of the invention show full inhibition (preventing lesion formation) at concentrations of 1 μM or less.

[2] = test system: lymphoma cells expressing luciferase; assay: Inhibiting Hh pathway abrogates lymphoma expansion in vivo (bioluminescence imaging); set-up: species or system syngeneic C57BL/6 mice; conditions: 50 mg/kg/day
Description: Stroma produced hedgehog ligands are important growth and survival factors for primary lymphoma cells under in-vitro culture conditions. Growth and expansion of lymphoma cells in-vivo is also dependent on Hh signalling. 1e6 lymphoma cells expressing luciferase were injected into syngeneic C57BL/6 mice. […] Luciferase levels were measured by bioluminescence imaging 3 times per week. […] Therefore we conclude that hedgehog pathway inhibition reduces lymphoma growth in mice.

Cc1c(C(=O)Nc2ccc(N3C[C@@H](C)O[C@@H](C)C3)nc2)cccc1-c1ccc(OC(F)(F)F)cc1 [Compound 153, N-(6-((2R,6S)-2,6-dimethylmorpholino)pyridin-3-yl)-2-methyl-4′-(trifluoromethoxy)biphenyl-3-carboxamide]
pEC50 [1]: > 6.70
lymphoma cell expansion (full efficacy) [2]: completely blocks lymphoma cell expansion
